Paper PMC5142287, “Weight control interventions improve therapeutic efficacy of dacarbazine in melanoma by reversing obesity-induced drug resistance” (Cancer & Metabolism, 2016)
Entries after “also recorded” stand apart in the source; their conditions may differ.

What was measured:
B16F1 cells = assay: Long-term survival assay, B16F1 cells in CM from 3T3-L1 cells; format: cell-based, Murine
Text: Additional file 1: Table S1. Composition of diets used in the study. Normal diet (ND) was procured from Amrut Laboratory Animal Feed, Pune, India, and high fat diet (HFD) was purchased from Provimi Animal Nutrition Pvt. Ltd., Bangalore, India. *, HFD was also supplemented with 400 g groundnut and 200 g dried coconut per kg body weight of mice. […] Obesity-associated parameters in the experimental ND mice recorded at the end of the experiment. ND male C57BL/6J mice were divided into two major groups. One group was orally treated with orlistat every alternate day before inoculating with B16F10 cells. The second group was orally given vehicle control on every alternate day for 8 weeks. Mice from both the groups (N = 11 per each group) were injected (s.c.) with B16F10 cells (2 × 10^5 cells/mouse in 100 μl PBS). Their body weight was monitored weekly throughout the study, and serum was collected at the end of the experiment. Blood glucose, serum TG, serum cholesterol, serum-free fatty acids, and serum LDLc were measured. Serum factors including leptin, adiponectin, insulin, resistin, IL-6, and TNF-α were estimated by ELISA. […] Effect of obesity-associated serum factors on the protein level of P-gp, Cav-1, and FASN in B16F1 cells. […] Thereafter, these cells were subjected to immunofluorescence confocal staining of the indicated molecules. The data were recorded using Zeiss LSM510 META Confocal Microscope. (Scale bar = 20 μm). […] Data were acquired on FACS Calibur and analyzed using BD CellQuest Pro software. The data are representative of experiments performed three times. (PDF 120 kb) Additional file 5: Figure S3. Effect of inhibition of FASN, Cav-1, and P-gp on response of B16F1 cells to DTIC. […] Thereafter, these cells were subjected to long-term survival assay. […] The medium was changed every 2–3 days.

B16F10 melanoma [1] = assay: B16F10 melanoma isograft in HFD (obese) C57BL/6J mice: tumor growth and survival; format: in vivo
Protocol: (§1) To study the impact of diet-induced obesity on the outcome of DTIC therapy in melanoma, we treated B16F10 melanoma isografted obese mice with DTIC purchased from Sigma, USA (80 mg/kg intraperitoneally for five consecutive days as described previously). In addition, to look into the impact of weight loss interventions on the outcome of DTIC therapy in obese mice, mice were administered with orlistat (an antiobesity drug known to inhibit gastrointestinal lipases) and/or shifted from high fat to normal diet followed by DTIC treatment. The detailed experimental plan is illustrated in Fig. 1a. Briefly, obese mice were administered orally with orlistat (10 mg/kg on every alternate day) purchased from Enzo Life Sciences, NY, USA, and/or shifted from high fat diet to normal diet. HFD C57BL/6J mice treated with vehicle or orlistat were termed as HFD-HFD Ctrl and HFD-HFD Orli (N = 11 per each group), respectively, whereas HFD C57BL/6J mice shifted to normal diet and treated with vehicle or orlistat were grouped as HFD-ND Ctrl and HFD-ND Orli (N = 11 per each group), respectively. After 15 days, these mice were injected subcutaneously (s.c.) with B16F10 cells (2 × 10^5) in 100 μl of PBS and monitored daily for the presence of palpable tumors and dimensions were recorded on alternate days. […] Tumor volume was calculated using the formula 0.52 × length × width^2 and was followed up throughout the study.

[2] = Obesity-associated factors in B16F10-isografted HFD C57BL/6J mice (body weight, blood glucose, serum lipids, ELISA); format: in vivo; settings: end of experiment, mean ± SD
Text: C57BL/6J mice were procured from Experimental Animal Facility (EAF) at National Centre for Cell Science (NCCS), Pune, India. High fat diet (24% fat) was purchased from Provimi Animal Nutrition Pvt. Ltd., Bangalore, India, and normal diet (5% fat) was obtained from Amrut Laboratory, Pune, India. The compositions of diets are provided in supplementary data (Additional file 1: Table S1). Diet-induced obesity was developed in the mice by feeding them with high fat diet as described previously. Male C57BL/6J mice (6–8 weeks old) were divided into normal diet (ND) and high fat diet (HFD) group. ND group was fed with normal diet while HFD group was fed with high fat diet supplemented with ground nut and dried coconut for 6 months. Body weight and serum chemistry profile were measured monthly to verify obesity-associated changes. Water and food were provided ad libitum to all the mice. All animal experiments were carried out as per the requirement and guidelines of the Committee for the Purpose of Control and Supervision of Experiments on Animals (CPCSEA), Government of India, and after obtaining permission of the Institutional Animal Ethics Committee (IAEC).
Blood glucose levels and serum lipids were estimated as described previously. Insulin, leptin, and adiponectin levels in the serum were estimated by mouse-specific respective ELISA kits as described. Resistin, IL-6, and TNF-α levels in the serum were detected by indirect ELISA as described previously.
as §1

B16F10 cells [3] = assay: Long-term survival assay, B16F10 cells in CM from 3T3-L1 cells; format: cell-based, Murine
Protocol: 3T3-L1 cells were plated in 35-mm dishes and differentiated as described, along with vehicle or orlistat treatment (50 μM).

B16F10 melanoma [4] = assay: B16F10 melanoma isograft in ND C57BL/6J mice: tumor growth and survival
Protocol: Melanoma cells were injected and orlistat treatment was continued. Following tumor formation, all groups of mice were treated with vehicle (acidified water) or DTIC, and tumor volume was followed up in these mice throughout the study as mentioned above. […] At the end of the experiment, mice were sacrificed, tumors were excised, and the samples were immediately preserved at −80 °C until further use. Five mice from each group were followed up for survival studies as mentioned above.

B16F10 cells [5] = assay: MTT assay, B16F10 cells grown in conditioned medium from 3T3-L1 cells; settings: for IC50: Mus musculus, 10 days, DTIC 48 h, MTT
metastatic melanoma = tested on: metastatic melanoma; design: method as in PMID 10840932; settings: cited from earlier work
B16F10 cells [6] = assay: MTT assay, B16F10 cells grown in medium with 5% serum of ND or HFD mice; settings: for IC50: Mus musculus, cells grown 10 days, DTIC 48 h, MTT
[7] = CM from differentiated ID adipocytes
[8] = CM from orlistat-treated differentiating adipocytes, DTIC at 649 μM

Q: Which Effect on survival (B16F1 cells; [7]) does the source give for `CN(C)/N=N/c1[nH]cnc1C(N)=O` [DTIC, Dacarbazine] here?
A: did not remarkably affect

Q: What about the “Improvement of sensitivity to DTIC” value (B16F1 cells; CM from differentiated adipocytes, simultaneous treatment with all three inhibitors) of the same compound?
A: approximately 80%

Q: And the Survival remaining (B16F1 cells; [8])?
A: approximately 30%

Q: What about the “Survivability of tumor-bearing mice” value (B16F10 melanoma [1]; HFD mice) of the same compound?
A: 60 days

Q: And the “Survival of tumor-bearing mice” value (B16F10 melanoma [1]; HFD mice)?
A: reduced

Q: What about the Survivability increase (B16F10 melanoma [1]; tumor-bearing HFD mice under weight control by orlistat treatment or diet shifting, DTIC therapy) of the same compound?
A: 40%

Q: And the Body weight ([2]; HFD-HFD (continued on HFD), orlistat 10 mg/kg oral alternate days, DTIC 80 mg/kg i.p. 5 days)?
A: 32.28 ± 1.70 (p = 0.999) g

Q: What about the Blood glucose ([2]; HFD-HFD) of the same compound?
A: 194.50 ± 6.98 (p = 0.9997) mg/dl

Q: And the “Serum IL-6” value ([2]; HFD-HFD)?
A: 44.99 ± 1.58 (p = 0.9999) pg/ml

Q: What about the “Serum LDLc” value ([2]; HFD-HFD) of the same compound?
A: 85.01 ± 1.17 (p = 0.9999) mg/dl

Q: And the “Serum TG” value ([2]; HFD-HFD)?
A: 84.17 ± 1.15 (p = 0.9999) mg/dl

Q: And the “Serum TNF-α” value ([2]; HFD-HFD)?
A: 28.67 ± 0.99 (p = 0.9708) pg/ml

Q: And the Serum adiponectin ([2]; HFD-HFD)?
A: 3421 ± 198 (p = 0.9999) ng/ml

Q: What about the Serum cholesterol ([2]; HFD-HFD) of the same compound?
A: 120.54 ± 4.49 (p = 0.9995) mg/dl

Q: And the “Serum free fatty acids” value ([2]; HFD-HFD)?
A: 2.20 ± 0.04 (p = 0.9993) mM/l

Q: And the Serum insulin ([2]; HFD-HFD)?
A: 0.385 ± 0.016 (p = 0.8701) μg/l

Q: And the Serum leptin ([2]; HFD-HFD)?
A: 43.11 ± 1.65 (p = 0.9999) ng/ml

Q: And the Serum resistin ([2]; HFD-HFD)?
A: 2.23 ± 0.11 (p = 0.9999) ng/ml

Q: What about the Blood glucose ([2]; HFD-ND) of the same compound?
A: 177.5 ± 5.05 (p = 0.0001) mg/dl

Q: And the “Serum IL-6” value ([2]; HFD-ND)?
A: 35.59 ± 2.38 (p < 0.0001) pg/ml

Q: And the “Serum TG” value ([2]; HFD-ND)?
A: 69.15 ± 2.41 (p < 0.0001) mg/dl

Q: And the “Serum TNF-α” value ([2]; HFD-ND)?
A: 16.17 ± 1.91 (p < 0.0001) pg/ml

Q: What about the Serum adiponectin ([2]; HFD-ND) of the same compound?
A: 5133 ± 228 (p < 0.0001) ng/ml

Q: What about the “Serum free fatty acids” value ([2]; HFD-ND) of the same compound?
A: 1.81 ± 0.05 (p < 0.0001) mM/l

Q: What about the Serum insulin ([2]; HFD-ND) of the same compound?
A: 0.301 ± 0.02 (p < 0.0001) μg/l

Q: What about the Serum leptin ([2]; HFD-ND) of the same compound?
A: 34.54 ± 2.3 (p < 0.0001) ng/ml

Q: What about the Serum resistin ([2]; HFD-ND) of the same compound?
A: 1.82 ± 0.10 (p < 0.0001) ng/ml

Q: And the Effect on survival (B16F10 cells [3]; [7])?
A: did not remarkably affect

Q: And the “Improvement of sensitivity to DTIC” value (B16F10 cells [3]; CM from differentiated adipocytes, simultaneous treatment with all three inhibitors (FASN, Cav-1, P-gp))?
A: approximately 80%

Q: What about the Survival remaining (B16F10 cells [3]; [8]) of the same compound?
A: approximately 30%

Q: And the “Survival of tumor-bearing mice” value (B16F10 melanoma [4])?
A: prolonged

Q: What about the “Tumor progression (tumor volume and weight)” value (B16F10 melanoma [4]; DTIC 80 mg/kg i.p. 5 days, orlistat 10 mg/kg oral alternate days) of the same compound?
A: significantly reduced; also recorded: significantly decreased

Q: What about the “Increase of concentration for 50% cell killing, CM of differentiated adipocytes vs preadipocytes” value (B16F10 cells [5]; B16F10 cells) of the same compound?
A: ~ 5 fold

Q: What about the IC50 (B16F10 cells [5]; B16-F10, CM from differentiated adipocytes (ID)) of the same compound?
A: 3250 µM

Q: What about the IC50 (B16F10 cells [5]; B16-F10, CM from undifferentiated preadipocytes (PA)) of the same compound?
A: 649 µM

Q: What about the Overall response rate (metastatic melanoma) of the same compound?
A: 20–25%

Q: What about the “Increase of IC50 in HFD serum vs ND serum” value (B16F10 cells [6]; B16F10 cells) of the same compound?
A: ~ 5 fold

Q: And the IC50 (B16F10 cells [6]; B16-F10, HFD serum (5%))?
A: 6690 µM

Q: And the IC50 (B16F10 cells [6]; B16-F10, ND serum (5%))?
A: 1420 µM
